The source of these data is PubChem BioAssay AID1259407 (Chemical Carcinogenesis Research Information System (CCRIS), 2018).

The data set has as its system CCRIS mutagenicity, Ames/micronucleus/aberration tests. The data set can be described thus: CCRIS mutagenicity studies.
Setting [1] is: Test System: AMES SALMONELLA TYPHIMURIUM, Strain/Indicator: TA100, Metabolic Activation: NONE, Method: PREINCUBATION

Calls of active or inactive are those of the source. How the calls were made is not given here.

For `CC1=NN(c2ccccc2)C(=O)C1`, the mutagenic call reads like this: (Test System: AMES SALMONELLA TYPHIMURIUM, Strain/Indicator: TA98, Metabolic Activation: HAMSTER, LIVER, S-9, AROCLOR 1254 (10%), Method: PREINCUBATION) “inactive; negative”; (Test System: AMES SALMONELLA TYPHIMURIUM, Strain/Indicator: TA98, Metabolic Activation: NONE, Method: PREINCUBATION) “inactive; negative”; (Test System: AMES SALMONELLA TYPHIMURIUM, Strain/Indicator: TA98, Metabolic Activation: RAT, LIVER, S-9, AROCLOR 1254 (10%), Method: PREINCUBATION) “inactive; negative”; (Test System: AMES SALMONELLA TYPHIMURIUM, Strain/Indicator: TA100, Metabolic Activation: HAMSTER, LIVER, S-9, AROCLOR 1254 (10%), Method: PREINCUBATION) “inactive; negative”; under setting [1], “inactive; negative”; (Test System: AMES SALMONELLA TYPHIMURIUM, Strain/Indicator: TA100, Metabolic Activation: RAT, LIVER, S-9, AROCLOR 1254 (10%), Method: PREINCUBATION) “inactive; negative”. In addition, the mutagenic call is “inactive; negative” (Test System: AMES SALMONELLA TYPHIMURIUM, Strain/Indicator: TA1535, Metabolic Activation: HAMSTER, LIVER, S-9, AROCLOR 1254 (10%), Method: PREINCUBATION); “inactive; negative” (Test System: AMES SALMONELLA TYPHIMURIUM, Strain/Indicator: TA1535, Metabolic Activation: NONE, Method: PREINCUBATION); “inactive; negative” (Test System: AMES SALMONELLA TYPHIMURIUM, Strain/Indicator: TA1535, Metabolic Activation: RAT, LIVER, S-9, AROCLOR 1254 (10%), Method: PREINCUBATION); “inactive; negative” (Test System: AMES SALMONELLA TYPHIMURIUM, Strain/Indicator: TA1537, Metabolic Activation: HAMSTER, LIVER, S-9, AROCLOR 1254 (10%), Method: PREINCUBATION); “inactive; negative” (Test System: AMES SALMONELLA TYPHIMURIUM, Strain/Indicator: TA1537, Metabolic Activation: NONE, Method: PREINCUBATION); “inactive; negative” (Test System: AMES SALMONELLA TYPHIMURIUM, Strain/Indicator: TA1537, Metabolic Activation: RAT, LIVER, S-9, AROCLOR 1254 (10%), Method: PREINCUBATION). For the same compound, the mutagenic call reads like this: (Test System: Ames Salmonella typhimurium, Strain/Indicator: TA98, Metabolic Activation: None, Method: Preincubation) “inactive; negative”; (Test System: Ames Salmonella typhimurium, Strain/Indicator: TA98, Metabolic Activation: Rat, Liver, S-9, Phenobarbital and 5,6-benzoflavone, Method: Preincubation) “inactive; negative”; (Test System: Ames Salmonella typhimurium, Strain/Indicator: TA100, Metabolic Activation: None, Method: Preincubation) “inactive; negative”; (Test System: Ames Salmonella typhimurium, Strain/Indicator: TA100, Metabolic Activation: Rat, Liver, S-9, Phenobarbital and 5,6-benzoflavone, Method: Preincubation) “inactive; negative”; (Test System: Ames Salmonella typhimurium, Strain/Indicator: TA1535, Metabolic Activation: None, Method: Preincubation) “inactive; negative”; (Test System: Ames Salmonella typhimurium, Strain/Indicator: TA1535, Metabolic Activation: Rat, Liver, S-9, Phenobarbital and 5,6-benzoflavone, Method: Preincubation) “inactive; negative”. For the same compound, the mutagenic call reads like this: (Test System: Ames Salmonella typhimurium, Strain/Indicator: TA1537, Metabolic Activation: None, Method: Preincubation) “inactive; negative”; (Test System: Ames Salmonella typhimurium, Strain/Indicator: TA1537, Metabolic Activation: Rat, Liver, S-9, Phenobarbital and 5,6-benzoflavone, Method: Preincubation) “inactive; negative”; (Test System: E. COLI, Strain/Indicator: WP2 UVRA, Metabolic Activation: HAMSTER, LIVER, S-9, AROCLOR 1254, Method: STANDARD PLATE) “inactive; negative”; (Test System: E. COLI, Strain/Indicator: WP2 UVRA, Metabolic Activation: HAMSTER, LIVER, S-9, Method: STANDARD PLATE) “inactive; negative”; (Test System: E. COLI, Strain/Indicator: WP2 UVRA, Metabolic Activation: MOUSE, LIVER, S-9, AROCLOR 1254, Method: STANDARD PLATE) “inactive; negative”; (Test System: E. COLI, Strain/Indicator: WP2 UVRA, Metabolic Activation: MOUSE, LIVER, S-9, Method: STANDARD PLATE) “inactive; negative”. The mutagenic call (Test System: E. COLI, Strain/Indicator: WP2 UVRA, Metabolic Activation: NONE, Method: STANDARD PLATE) was “inactive; negative”; the mutagenic call (Test System: E. COLI, Strain/Indicator: WP2 UVRA, Metabolic Activation: RAT, LIVER, S-9, AROCLOR 1254, Method: STANDARD PLATE) is “inactive; negative”; the mutagenic call (Test System: E. COLI, Strain/Indicator: WP2 UVRA, Metabolic Activation: RAT, LIVER, S-9, Method: STANDARD PLATE) is “inactive; negative”; the mutagenic call (Test System: E. coli, Strain/Indicator: WP2uvrA/pKM101, Metabolic Activation: None, Method: Preincubation) was “inactive; negative”; the mutagenic call (Test System: E. coli, Strain/Indicator: WP2uvrA/pKM101, Metabolic Activation: Rat, Liver, S-9, Phenobarbital and 5,6-benzoflavone, Method: Preincubation) is “inactive; negative”; the mutagenic call (Test System: MOUSE LYMPHOMA, Strain/Indicator: L5178Y (TK+/TK-), Metabolic Activation: NONE, Method: SUSPENSION/PLATE) was “inactive; negative”. Moreover, the mutagenic call (Test System: MOUSE LYMPHOMA, Strain/Indicator: L5178Y (TK+/TK-), Metabolic Activation: RAT, LIVER, S-9, AROCLOR 1254, Method: SUSPENSION/PLATE) is “active; positive”.

For `Cl/C=C(\Cl)SCc1ccccc1`, the mutagenic call reads like this: under setting [1], “inactive; negative”; (Test System: AMES SALMONELLA TYPHIMURIUM, Strain/Indicator: TA100, Metabolic Activation: RAT, LIVER, S-9, AROCLOR 1254, Method: PREINCUBATION) “active; positive”.
